The record followed here is PMC10586439 (ACS Omega, 2023).

Usually IC50 stands for the point on the concentration scale where inhibition reaches its midpoint. Broadly, the inhibition is how much of the control response was suppressed.

In experiment [1] the test system is MDA-MB-231 human breast carcinoma cell line. In words: MTT cytotoxicity assay against MDA-MB-231 breast carcinoma cell line. The class given is cell-based.
The test system of experiment [2] is normal MCF-10A breast cells. In words: MTT cytotoxicity assay on normal MCF-10A breast cells. The class given is cell-based. The settings on record: for IC50: Homo sapiens, MCF-10A, read-out: IC50 value (μM) MCF-10A.
Experiment [3] has as its target β-tubulin (Homo sapiens, UniProt P07437+P68363). In words: β-Tubulin polymerization inhibition. The following applies: read-out: β-tubulin polymerization inhibition percentage. The class given is biochemical.
Experiment [4] deals with MDA-MB-231 cells. In words: Cell cycle analysis by flow cytometry. The class given is cell-based, human. For orientation: In flow cytometry, cells or beads pass a laser one at a time.
The test system of experiment [5] is MDA-MB-231 cells. In words: Annexin V-FITC/PI apoptosis assay by flow cytometry. The class given is cell-based, human. The settings on record: MDA-MB-231, 48 h, compound at its IC50.
Where [6] appears, read: MDA-MB-231, 24 h, read-out: IC50 value (μM) MDA-MB-231.
The mark [7] stands for this setting: MDA-MB-231, read-out: IC50 against MDA-MB-231 cells.

Like-named read-outs stand apart in the source and are kept apart here.

Sequence of β-tubulin (P07437 whole entry): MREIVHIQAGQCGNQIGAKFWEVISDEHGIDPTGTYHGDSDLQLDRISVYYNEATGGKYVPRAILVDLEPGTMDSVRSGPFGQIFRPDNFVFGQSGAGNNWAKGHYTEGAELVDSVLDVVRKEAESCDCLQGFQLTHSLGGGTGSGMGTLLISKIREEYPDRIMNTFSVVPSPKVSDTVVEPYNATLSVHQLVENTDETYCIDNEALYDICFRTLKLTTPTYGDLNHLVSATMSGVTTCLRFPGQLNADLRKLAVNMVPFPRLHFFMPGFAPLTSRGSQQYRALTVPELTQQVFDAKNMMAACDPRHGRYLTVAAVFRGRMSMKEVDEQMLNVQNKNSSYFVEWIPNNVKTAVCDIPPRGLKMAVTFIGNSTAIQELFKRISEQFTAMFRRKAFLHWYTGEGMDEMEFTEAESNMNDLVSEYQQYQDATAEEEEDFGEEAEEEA
Sequence of β-tubulin (P68363 whole entry): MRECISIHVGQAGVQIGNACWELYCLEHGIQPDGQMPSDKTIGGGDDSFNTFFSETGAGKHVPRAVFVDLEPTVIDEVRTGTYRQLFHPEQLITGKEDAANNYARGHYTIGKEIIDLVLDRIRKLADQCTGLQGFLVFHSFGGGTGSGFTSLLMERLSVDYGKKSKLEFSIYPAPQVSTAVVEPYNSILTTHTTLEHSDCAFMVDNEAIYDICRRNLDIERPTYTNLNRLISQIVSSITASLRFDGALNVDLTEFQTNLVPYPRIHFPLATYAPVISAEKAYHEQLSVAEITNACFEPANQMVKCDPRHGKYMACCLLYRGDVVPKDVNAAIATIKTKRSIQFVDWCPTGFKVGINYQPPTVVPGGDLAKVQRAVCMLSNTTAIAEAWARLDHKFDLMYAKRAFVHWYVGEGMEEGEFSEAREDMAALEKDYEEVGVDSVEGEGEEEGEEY

As for `COc1ccc(C(=O)N/C(=C\c2ccc(Cl)cc2)C(=O)O)cc1OC` [4a, (Z)-3-(4-Chlorophenyl)-2-(3,4-dimethoxybenzamido)acrylic Acid], the concentration for half-maximal inhibition (IC50) in experiment [1] (setting [6]) was 8.24 ± 0.37 µM; in experiment [1] (setting [7]), 8.55 to 15.9 µM.

For the compound `COc1cc(C(=O)N/C(=C\c2ccc(Cl)cc2)C(=O)O)cc(OC)c1OC` [4b, (Z)-3-(4-Chlorophenyl)-2-(3,4,5-trimethoxybenzamido)acrylic Acid], the figures for the IC50 in experiment [1] (setting [6]) and in experiment [2] were 3.24 ± 0.13 µM and 23.3 ± 0.32 µM, respectively. Also, the “mean tumor selectivity index” value in experiment [2] (MCF-10A versus MDA-MB-231) stood at 7.2. Besides, the inhibition at 25 µM in experiment [3] was found to be 80.1%. Moreover, the “percentage of cells in G2/M phase” value in experiment [4] (MDA-MB-231, 48 h, compound at its IC50, untreated control 7.35%) is 28.08%. The “cell accumulation at G2/M stage, times higher than untreated control” value in experiment [4] (MDA-MB-231, compound at its IC50) was 3.82 times. In experiment [5] (untreated control 0.24%), this compound came in with a late-secondary cellular apoptosis of 12.62%. In experiment [5] (untreated control 0.69%), this compound registered an early primary apoptosis of 8.09%.

As for `COC(=O)/C(=C/c1ccc(Cl)cc1)NC(=O)c1ccc(OC)c(OC)c1` [5a, (Z)-Methyl 3-(4-Chlorophenyl)-2-(3,4-dimethoxybenzamido)acrylate], the 50% inhibitory concentration (IC50) in experiment [1] (setting [6]) stood at 4.84 ± 0.19 µM. Moreover, in experiment [3], the inhibition at 25 µM is 57.1%.

Turning to `CCOC(=O)/C(=C/c1ccc(Cl)cc1)NC(=O)c1ccc(OC)c(OC)c1` [5b, (Z)-Ethyl 3-(4-Chlorophenyl)-2-(3,4-dimethoxybenzamido)acrylate], in experiment [1] (setting [6]), the IC50 amounted to 15.8 ± 0.41 µM.

`CCCOC(=O)/C(=C/c1ccc(Cl)cc1)NC(=O)c1ccc(OC)c(OC)c1` [5c, (Z)-Propyl 3-(4-Chlorophenyl)-2-(3,4-dimethoxybenzamido)acrylate]: the IC50 in experiment [1] (setting [6]) worked out at 14.3 ± 0.33 µM.

Take `CCCCOC(=O)/C(=C/c1ccc(Cl)cc1)NC(=O)c1ccc(OC)c(OC)c1` [5d, (Z)-Butyl 3-(4-Chlorophenyl)-2-(3,4-dimethoxybenzamido)acrylate]: the values for the half-inhibitory concentration (IC50) in experiment [1] (setting [6]) and in experiment [1] (setting [7]) were 45.9 ± 1.02 µM and 45.8 µM, respectively.

Consider `COC(=O)/C(=C/c1ccc(Cl)cc1)NC(=O)c1cc(OC)c(OC)c(OC)c1` [5e, (Z)-Methyl 3-(4-Chlorophenyl)-2-(3,4,5-trimethoxybenzamido)acrylate], for which the half-maximal inhibitory concentration (IC50) is 4.03 ± 0.16 µM in experiment [1] (setting [6]) and 4.06 µM in experiment [1] (setting [7]). Also, the inhibition at 25 µM in experiment [3] is 77.8%.

`CCOC(=O)/C(=C/c1ccc(Cl)cc1)NC(=O)c1cc(OC)c(OC)c(OC)c1` [5f, (Z)-Ethyl 3-(4-Chlorophenyl)-2-(3,4,5-trimethoxybenzamido)acrylate]: the IC50 in experiment [1] (setting [6]) worked out at 11.6 ± 0.24 µM.

In the case of `CCCOC(=O)/C(=C/c1ccc(Cl)cc1)NC(=O)c1cc(OC)c(OC)c(OC)c1` [5g, (Z)-Propyl 3-(4-Chlorophenyl)-2-(3,4,5-trimethoxybenzamido)acrylate], the half-inhibitory concentration (IC50) in experiment [1] (setting [6]) came out at 23.2 ± 0.4 µM.

As to `COc1cc(C(=O)N/C(=C\c2ccc(Cl)cc2)C(=O)OC(C)C)cc(OC)c1OC` [5h, (Z)-Isopropyl 3-(4-Chlorophenyl)-2-(3,4,5-trimethoxybenzamido)acrylate], the IC50 in experiment [1] (setting [6]) was 25.2 ± 0.51 µM.

For the compound `CCCCOC(=O)/C(=C/c1ccc(Cl)cc1)NC(=O)c1cc(OC)c(OC)c(OC)c1` [5i, (Z)-Butyl 3-(4-Chlorophenyl)-2-(3,4,5-trimethoxybenzamido)acrylate], the concentration for half-maximal inhibition (IC50) in experiment [1] (setting [6]) amounted to 28.1 ± 0.56 µM.

As to `COc1ccc(/C=C\c2cc(OC)c(OC)c(OC)c2)cc1O` [CA-4, combretastatin A-4, reference compound], the concentration for half-maximal inhibition (IC50) in experiment [1] (setting [6]) is 1.27 µM; in experiment [2] it was 14.2 ± 0.29 µM. In addition, in experiment [3], the inhibition at 25 µM is 89.8%.
